Source: the supplement of paper PMC10307832

Assays:
Assay in all cases: relative viability (nuclei count vs DMSO), 5 days (fraction); higher = more cells survive
[1] = compound: Cn1cc(-c2cnn3c(N)c(Br)c([C@@H]4CCCNC4)nc23)cn1 + CC(=O)c1c(C)c2cnc(Nc3ccc(N4CCNCC4)cn3)nc2n(C2CCCC2)c1=O [Palbociclib] (partner 0.5 µM)
Outline: (§1)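 Relative viability divides the nuclei count in treated wells by that in vehicle wells. Lung cancer cell lines were seeded in 1536-well plates, dosed by pin tool the next day, and fixed and stained after 5 days in one step with final 0.05% Triton X-100, 1% formaldehyde and 1 ug/ml Hoechst. Dosing was a single drug or a fixed anchor-drug dose plus five library-drug doses (not always all listed) in √10 steps, and values are medians of duplicate plates imaged at 4×.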

[2] = compound: Cn1cc(-c2cnn3c(N)c(Br)c([C@@H]4CCCNC4)nc23)cn1 + N=C(N)NC(=N)NCCc1ccccc1 [Phenformin] (partner 250 µM)
Outline: as §1

[3] = compound: Cn1cc(-c2cnn3c(N)c(Br)c([C@@H]4CCCNC4)nc23)cn1 + CS(=O)(=O)N1CCN(Cc2cc3nc(-c4cccc5[nH]ncc45)nc(N4CCOCC4)c3s2)CC1 [Pictilisib] (partner 1 µM)
Outline: as §1

[4] = compound: Cn1cc(-c2cnn3c(N)c(Br)c([C@@H]4CCCNC4)nc23)cn1 + Nc1ncn([C@H]2C[C@H](O)[C@@H](CO)O2)c(=O)n1 [Decitabine] (partner 2 µM)
Outline: as §1

Cell Line | relative viability ([1]; first compound 0.05 µM) | relative viability ([1]; first compound 0.1581 µM) | relative viability ([1]; first compound 0.5 µM) | relative viability ([1]; first compound 1.581 µM) | relative viability ([1]; first compound 5 µM) | relative viability ([2]; first compound 0.05 µM) | relative viability ([2]; first compound 0.1581 µM) | relative viability ([2]; first compound 0.5 µM) | relative viability ([2]; first compound 5 µM) | relative viability ([3]; first compound 0.05 µM) | relative viability ([3]; first compound 0.1581 µM) | relative viability ([3]; first compound 0.5 µM) | relative viability ([3]; first compound 1.581 µM) | relative viability ([3]; first compound 5 µM) | relative viability ([4]; first compound 0.05 µM) | relative viability ([4]; first compound 0.1581 µM) | relative viability ([4]; first compound 0.5 µM) | relative viability ([4]; first compound 1.581 µM) | relative viability ([4]; first compound 5 µM) | relative viability ([2]; first compound 1.581 µM)
LK-2 | 0.703 | 0.658 | 0.678 | 0.542 | 0.431 | 0.374 | 0.471 | 0.258 | 0.286 | 0.597 | 0.508 | 0.574 | 0.444 | 0.306 | 0.323 | 0.337 | 0.254 | 0.272 | 0.23 | –
NCI-H1993 | 0.645 | 0.704 | 0.584 | 0.564 | 0.471 | 0.522 | 0.536 | 0.412 | 0.513 | 0.816 | 0.789 | – | 0.819 | 0.686 | 0.602 | 0.49 | 0.621 | 0.55 | 0.524 | 0.481
NCI-H838 | 0.238 | 0.228 | 0.211 | 0.178 | 0.224 | 0.483 | 0.66 | 0.552 | 0.554 | 0.365 | 0.501 | 0.416 | 0.264 | 0.488 | 0.483 | 0.574 | 0.545 | 0.51 | 0.309 | 0.324
NCI-H1437 | 0.311 | 0.321 | 0.339 | 0.259 | 0.231 | 0.272 | 0.296 | 0.32 | 0.229 | 0.438 | 0.411 | 0.418 | 0.292 | 0.306 | 0.556 | 0.695 | 0.655 | 0.623 | 0.21 | 0.214
NCI-H2170 | 0.402 | 0.407 | 0.366 | 0.345 | 0.397 | 0.415 | 0.441 | 0.429 | 0.429 | 0.281 | 0.299 | 0.262 | 0.274 | 0.295 | 0.503 | 0.491 | 0.459 | 0.473 | 0.516 | 0.429
LCLC-103H | 0.521 | 0.447 | 0.467 | 0.515 | 0.466 | 0.297 | 0.338 | 0.364 | 0.299 | 0.565 | 0.555 | 0.522 | 0.489 | 0.466 | 0.745 | 0.73 | 0.809 | 0.695 | 0.816 | 0.3
NCI-H441 | 0.191 | 0.189 | 0.199 | 0.172 | 0.193 | 0.785 | 1.15 | 0.915 | 0.727 | 0.669 | 0.56 | 0.478 | 0.527 | 0.46 | 0.257 | 0.249 | 0.26 | 0.22 | 0.257 | 0.841
SK-LU-1 | 0.388 | 0.308 | 0.366 | 0.323 | 0.225 | 0.515 | 0.426 | 0.299 | 0.184 | 0.569 | 0.424 | 0.458 | 0.365 | 0.278 | 0.788 | 0.586 | 0.537 | 0.363 | 0.255 | 0.254
BEN | 0.501 | 0.489 | 0.497 | 0.459 | 0.53 | 0.249 | 0.213 | 0.288 | 0.284 | 0.628 | 0.575 | 0.498 | 0.496 | 0.417 | 0.701 | 0.763 | 0.663 | 0.709 | 0.629 | 0.268
LC-2-ad | 0.499 | 0.515 | 0.441 | 0.435 | 0.483 | 0.558 | 0.643 | 0.64 | 0.529 | 0.546 | 0.466 | 0.335 | 0.349 | 0.272 | 0.856 | 0.811 | 0.856 | 0.781 | 0.908 | 0.539
COR-L23 | 0.345 | 0.346 | 0.356 | 0.231 | 0.183 | 0.479 | 0.474 | 0.443 | 0.191 | 0.952 | 1.16 | 0.597 | 0.447 | 0.257 | 0.407 | 0.489 | 0.481 | 0.354 | 0.248 | 0.298
NCI-H1650 | 0.248 | 0.366 | 0.281 | 0.244 | 0.254 | – | 0.505 | 0.403 | 0.218 | 0.66 | 0.654 | 0.681 | 0.479 | 0.24 | 0.445 | 0.478 | 0.373 | 0.445 | 0.3 | 0.33
RERF-LC-KJ | 0.983 | 1.04 | 1.03 | 0.863 | 0.712 | 0.41 | 0.46 | 0.41 | 0.412 | 0.593 | 0.53 | 0.384 | 0.359 | 0.346 | 0.822 | 0.85 | 0.636 | 0.549 | 0.628 | 0.408
NCI-H1915 | 0.591 | 0.562 | 0.522 | 0.508 | 0.543 | 0.344 | 0.377 | 0.36 | 0.379 | 0.933 | 0.942 | 0.948 | 0.896 | 0.9 | 0.225 | 0.255 | 0.299 | 0.24 | 0.311 | 0.357
NCI-H2009 | 0.237 | 0.177 | 0.185 | 0.18 | 0.113 | 0.487 | 0.507 | 0.453 | 0.409 | 0.712 | 0.873 | 0.714 | 0.517 | 0.552 | 0.384 | 0.369 | 0.377 | 0.37 | 0.387 | 0.434
NCI-H2126 | 0.338 | 0.332 | 0.363 | 0.347 | 0.408 | 0.492 | 0.543 | 0.51 | 0.47 | 0.462 | 0.519 | 0.512 | 0.52 | 0.524 | 0.544 | 0.581 | 0.563 | 0.526 | 0.632 | 0.491
LXF-289 | 0.618 | 0.663 | 0.585 | 0.555 | 0.654 | 0.525 | 0.57 | 0.496 | 0.528 | 0.827 | 0.907 | 0.896 | 0.712 | 0.825 | 0.368 | 0.41 | 0.401 | 0.382 | 0.485 | 0.486
